Broadly, the IC50 is the point on the concentration scale where inhibition reaches its midpoint.

SMILES strings stand for the structures. Where two headings read alike, the source gives them in different places.

In patent US20130018033A1, “RAF INHIBITOR COMPOUNDS AND METHODS OF USE THEREOF” (ARRAY BIOPHARMA INC., priority 2009, published 2013) one finds IC50 data, which are given here for 19 compounds.

Assay [1] relates to basal ERK1/2 phosphorylation in Malme-3M cells. The assay can be described thus: Cellular ERK 1/2 phosphorylation assay (Example A1). It counts as cell-based. Conditions: Homo sapiens, 1 hour incubation, pERK normalized to total ERK, read-out: P-ERK Malme3-M IC50. As to the method:
Inhibition of basal ERK1/2 phosphorylation was determined by the following in vitro […], which comprises incubating cells with a compound of Formula I for 1 hour and quantifying the fluorescent pERK signal on fixed cells and normalizing to total ERK signal.
Malme-3M cells were obtained from ATCC and grown in RPMI-1640 supplemented with 10% fetal bovine serum. Cells were plated in 96-well plates at 24,000 cells/well and allowed to attach for 16-20 hours at 37° C., 5% CO2. The media was removed, and DMSO-diluted compounds were added in RPMI-1640 at a final concentration of 1% DMSO. The cells were incubated with the compounds for 1 hour at 37° C., 5% CO2. The cells were washed with PBS and fixed in 3.7% formaldehyde in PBS for 15 minutes. This was followed by washing in PBS/0.05% Tween20 and permeabilizing in −20° C. 100% MeOH for 15 minutes. Cells were washed in PBS/0.05% Tween20 then blocked in Odyssey blocking buffer (LI-COR Biosciences) for 1 hour. Antibodies to phosphorylated ERK (1:400, Cell Signaling #9106, monoclonal) and total ERK (1:400, Santa Cruz Biotechnology #sc-94, polyclonal) were added to the cells and incubated 16-20 hours at 4° C. After washing with PBS/0.05% Tween20, the cells were incubated with fluorescently-labeled secondary antibodies (1:1000 goat anti-rabbit IgG-IRDye800, Rockland and 1:500 goat anti-mouse IgG-Alexa Fluor 680, Molecular Probes) for an additional hour. Cells were then washed and analyzed for fluorescence at both wavelengths using the Odyssey Infrared Imaging System (LI-COR Biosciences). Phosphorylated ERK signal was normalized to total ERK signal.

Assay [2] deals with T1, V600E full-length B-Raf (Homo sapiens, UniProt P15056, V600E).
T1 construct: 1 μM FSBA-MEK and 20 nM V600E full-length B-Raf; made in house; host or cells: Sf9 insect cells (baculovirus)
The assay can be described thus: B-Raf IC50 assay (Example A). The format is biochemical. An excerpt: Determining the activity of Raf in the sample is possible by a number of direct and indirect detection methods (US 2004/0082014). Activity of human recombinant B-Raf protein may be assessed in vitro by assay of the incorporation of radio labeled phosphate to recombinant MAP kinase (MEK), a known physiologic substrate of B-Raf, according to US 2004/0127496 and WO 03/022840. The activity/inhibition of V600E full-length B-Raf was estimated by measuring the incorporation of radio labeled phosphate from [γ-^33P]ATP into FSBA-modified wild-type MEK (see Example A).
Activity of human recombinant B-Raf protein may be assessed in vitro by assay of the incorporation of radio labeled phosphate to recombinant MAP kinase (MEK), a known physiologic substrate of B-Raf, according to US 2004/0127496 and WO 03/022840. Catalytically active human recombinant B-Raf protein is obtained by purification from sf9 insect cells infected with a human B-Raf recombinant baculovirus expression vector.
The activity/inhibition of V600E full-length B-Raf was estimated by measuring the incorporation of radio labeled phosphate from [γ-^33P]ATP into FSBA-modified wild-type MEK. The 30-μL assay mixtures contained 25 mM Na Pipes, pH 7.2, 100 mM KCl, 10 mM MgCl2, 5 mM β-glycerophosphate, […], 4 μM ATP, 500 nCi [γ-^33P]ATP, 1 μM FSBA-MEK and 20 nM V600E full-length B-Raf. Incubations were carried out at 22° C. in a Costar 3365 plate (Corning). Prior to the assay, the B-Raf and FSBA-MEK were preincubated together in assay buffer at 1.5×(20 μL of 30 nM and 1.5 μM, respectively) for 15 minutes, and the assay was initiated by the addition of 10 μL of 10 μM ATP. Following the 60-minute incubation, the assay mixtures were quenched by the addition of 100 μL of 25% TCA, the plate was mixed on a rotary shaker for 1 minute, and the product was captured on a Perkin-Elmer GF/B filter plate using a Tomtec Mach III Harvester. After sealing the bottom of the plate, 35 μL of Bio-Safe II (Research Products International) scintillation cocktail were added to each well and the plate was top-sealed and counted in a Topcount NXT (Packard).

Where [3] appears, read: B-Raf V600E assay of Example A, read-out: IC50.
Setting [4] is: [γ-33P]ATP incorporation into FSBA-MEK, 4 μM ATP, read-out: BRAF V600E IC50.

T1 sequence (P15056 whole entry V600E): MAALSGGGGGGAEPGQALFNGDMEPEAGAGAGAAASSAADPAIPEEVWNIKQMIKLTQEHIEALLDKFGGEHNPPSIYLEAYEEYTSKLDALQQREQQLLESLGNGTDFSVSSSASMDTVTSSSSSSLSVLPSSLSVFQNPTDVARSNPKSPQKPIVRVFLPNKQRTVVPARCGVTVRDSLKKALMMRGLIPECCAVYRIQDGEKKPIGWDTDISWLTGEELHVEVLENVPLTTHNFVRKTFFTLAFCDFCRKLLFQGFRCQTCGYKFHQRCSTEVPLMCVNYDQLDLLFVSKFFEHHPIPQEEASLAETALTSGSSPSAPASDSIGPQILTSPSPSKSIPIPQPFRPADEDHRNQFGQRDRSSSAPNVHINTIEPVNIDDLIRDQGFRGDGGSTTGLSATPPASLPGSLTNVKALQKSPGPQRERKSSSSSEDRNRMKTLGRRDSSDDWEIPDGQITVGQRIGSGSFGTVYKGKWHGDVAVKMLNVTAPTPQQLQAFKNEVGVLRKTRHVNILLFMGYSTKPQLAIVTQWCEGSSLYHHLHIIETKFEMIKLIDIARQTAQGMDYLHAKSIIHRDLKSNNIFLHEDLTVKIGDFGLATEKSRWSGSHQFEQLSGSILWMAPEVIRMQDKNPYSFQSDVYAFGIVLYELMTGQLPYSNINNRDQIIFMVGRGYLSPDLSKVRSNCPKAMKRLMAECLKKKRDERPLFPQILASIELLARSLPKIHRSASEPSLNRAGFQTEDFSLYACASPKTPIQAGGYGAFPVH

Turning to `CCCS(=O)(=O)Nc1cc(F)c(F)c(NC(=O)c2cccc3c(N)ncnc23)c1F` [Example 9, 4-Amino-quinazoline-8-carboxylic acid [2,3,6-trifluoro-5-(propane-1-sulfonylamino)-phenyl]-amide], the values for the half-inhibitory concentration (IC50) in assay [1], in assay [2] (setting [3]) and in assay [2] (setting [4]) were 12 nM, less than 100 nM and 0.39 nM, respectively.

On to `CC(C)CS(=O)(=O)Nc1ccc(F)c(NC(=O)c2cccc3c(N)ncnc23)c1Cl` [Example 10, 4-Amino-quinazoline-8-carboxylic acid [2-chloro-6-fluoro-3-(2-methyl-propane-1-sulfonylamino)-phenyl]-amide], for which the IC50 in assay [1] is 6.73 nM; in assay [2] (setting [3]), less than 100 nM; in assay [2] (setting [4]) it was 0.55 nM.

For `CCCS(=O)(=O)Nc1cc(F)cc(NC(=O)c2cccc3c(N)ncnc23)c1F` [Example 11, 4-Amino-quinazoline-8-carboxylic acid [2,5-difluoro-3-(propane-1-sulfonylamino)-phenyl]-amide], the IC50 was 45 nM in assay [1], less than 100 nM in assay [2] (setting [3]) and 4.13 nM in assay [2] (setting [4]).

With `CC(C)CS(=O)(=O)Nc1ccc(F)c(NC(=O)c2cccc3c(N)ncnc23)c1F` [Example 12, 4-Amino-quinazoline-8-carboxylic acid [2,6-difluoro-3-(2-methyl-propane-1-sulfonylamino)-phenyl]-amide], the figures for the 50% inhibitory concentration (IC50) in assay [1], in assay [2] (setting [3]) and in assay [2] (setting [4]) were 8.54 nM, less than 100 nM and 1.55 nM, respectively.

On to `Nc1ncnc2c(C(=O)Nc3c(F)ccc(NS(=O)(=O)CC4CC4)c3F)cccc12` [Example 13, 4-Amino-quinazoline-8-carboxylic acid (3-cyclopropyl-methane-sulfonylamino-2,6-difluoro-phenyl)-amide], for which the half-maximal inhibitory concentration (IC50) is 14.9 nM in assay [1], less than 100 nM in assay [2] (setting [3]) and 3.8 nM in assay [2] (setting [4]).

In the case of `CCCS(=O)(=O)Nc1cc(Cl)cc(NC(=O)c2cccc3c(N)ncnc23)c1F` [Example 14, 4-Amino-quinazoline-8-carboxylic acid [5-chloro-2-fluoro-3-(propane-1-sulfonylamino)-phenyl]-amide], the results for the IC50 in assay [1], in assay [2] (setting [3]) and in assay [2] (setting [4]) were 381 nM, less than 100 nM and 27.9 nM, respectively.

Consider `CC(C)CS(=O)(=O)Nc1ccc(Cl)c(NC(=O)c2cccc3c(N)ncnc23)c1F` [Example 15, 4-Amino-quinazoline-8-carboxylic acid [6-chloro-2-fluoro-3-(2-methyl-propane-1-sulfonylamino)-phenyl]-amide], for which the IC50 in assay [1] is 6.08 nM; in assay [2] (setting [3]), less than 100 nM; in assay [2] (setting [4]), 0.5 nM.

On to `Nc1ncnc2c(C(=O)Nc3c(F)ccc(NS(=O)(=O)CC4CC4)c3Cl)cccc12` [Example 16, 4-Amino-quinazoline-8-carboxylic acid (2-chloro-3-cyclopropyl-methane-sulfonylamino-6-fluoro-phenyl)-amide], for which the 50% inhibitory concentration (IC50) is 15.2 nM in assay [1], less than 100 nM in assay [2] (setting [3]) and 2.6 nM in assay [2] (setting [4]).

With `CCCS(=O)(=O)Nc1ccc(Cl)c(NC(=O)c2cccc3c(N)ncnc23)c1F` [Example 17, 4-Amino-quinazoline-8-carboxylic acid [6-chloro-2-fluoro-3-(propane-1-sulfonylamino)-phenyl]-amide], the IC50 is 8.7 nM in assay [1]; less than 100 nM in assay [2] (setting [3]); 0.58 nM in assay [2] (BRAF V600E IC50 (μM), [γ-33P]ATP incorporation into FSBA-MEK, 4 μM ATP).

As for `CCS(=O)(=O)Nc1ccc(Cl)c(NC(=O)c2cccc3c(N)ncnc23)c1F` [Example 18, 4-Amino-quinazoline-8-carboxylic acid (6-chloro-3-ethanesulfonyl-amino-2-fluoro-phenyl)-amide], the IC50 in assay [1] is 18.2 nM; in assay [2] (setting [3]) it was less than 100 nM; in assay [2] (setting [4]), 1.53 nM.

Turning to `CCS(=O)(=O)Nc1ccc(F)c(NC(=O)c2cccc3c(N)ncnc23)c1F` [Example 19, 4-Amino-quinazoline-8-carboxylic acid (3-ethanesulfonyl-amino-2,6-difluoro-phenyl)-amide], the half-inhibitory concentration (IC50) in assay [1] was 25.9 nM; in assay [2] (setting [3]), less than 100 nM; in assay [2] (setting [4]), 4.97 nM.

For the compound `CCS(=O)(=O)Nc1ccc(F)c(NC(=O)c2cccc3c(N)ncnc23)c1Cl` [Example 20, 4-Amino-quinazoline-8-carboxylic acid (2-chloro-3-ethanesulfonyl-amino-6-fluoro-phenyl)-amide], the half-maximal inhibitory concentration (IC50) in assay [1] was 32.4 nM; in assay [2] (setting [3]) it was less than 100 nM; in assay [2] (setting [4]) it was 2.24 nM.

Take `CCCS(=O)(=O)Nc1ccc(C)c(NC(=O)c2cccc3c(N)ncnc23)c1` [Example 21, 4-Amino-quinazoline-8-carboxylic acid [2-methyl-5-(propane-1 sulfonylamino)-phenyl]-amide]: the IC50 in assay [1] is 1320 nM; in assay [2] (setting [3]), less than 100 nM; in assay [2] (setting [4]) it was 18.5 nM.

With `CCCS(=O)(=O)Nc1ccc(Cl)c(NC(=O)c2cccc3c(N)ncnc23)c1` [Example 22, 4-Amino-quinazoline-8-carboxylic acid [2-chloro-5-(propane-1-sulfonylamino)-phenyl]-amide], the IC50 in assay [1] was 1110 nM; in assay [2] (setting [3]) it was less than 100 nM; in assay [2] (setting [4]), 64.9 nM.

On to `Nc1ncnc2c(C(=O)Nc3c(F)ccc(NS(=O)(=O)CCCF)c3Cl)cccc12` [Example 24, 4-Amino-quinazoline-8-carboxylic acid [2-chloro-6-fluoro-3-(3-fluoro-propane-1-sulfonylamino)-phenyl]-amide], for which the IC50 is 4.05 nM in assay [1], less than 100 nM in assay [2] (setting [3]) and 0.14 nM in assay [2] (setting [4]).

`Nc1ncnc2c(C(=O)Nc3c(Cl)ccc(NS(=O)(=O)CCCF)c3F)cccc12` [Example 25, 4-Amino-quinazoline-8-carboxylic acid [6-chloro-2-fluoro-3-(3-fluoro-propane-1-sulfonylamino)-phenyl]-amide]: the IC50 is 2.21 nM in assay [1], less than 100 nM in assay [2] (setting [3]) and 0.09 nM in assay [2] (setting [4]).

As for `Nc1ncnc2c(C(=O)Nc3c(F)c(F)cc(NS(=O)(=O)CCCF)c3F)cccc12` [Example 26, 4-Amino-quinazoline-8-carboxylic acid [2,3,6-trifluoro-5-(3-fluoro-propane-1-sulfonylamino)-phenyl]-amide], the IC50 in assay [1] was 10.8 nM; in assay [2] (setting [3]), less than 100 nM; in assay [2] (setting [4]), 0.31 nM.

For `Nc1ncnc2c(C(=O)Nc3c(Cl)ccc(NS(=O)(=O)CCCF)c3Cl)cccc12` [Example 27, 4-Amino-quinazoline-8-carboxylic acid [2,6-dichloro-3-(3-fluoro-propane-1-sulfonylamino)-phenyl]-amide], the 50% inhibitory concentration (IC50) in assay [1] is 4.07 nM; in assay [2] (setting [3]), less than 100 nM; in assay [2] (setting [4]), 0.08 nM.

Consider `CCCS(=O)(=O)Nc1ccc(Cl)c(NC(=O)c2cccc3c(N)ncnc23)c1C#N` [Example 29, 4-Amino-quinazoline-8-carboxylic acid [6-chloro-2-cyano-3-(propane-1-sulfonylamino)-phenyl]-amide], for which the IC50 in assay [1] is 25.3 nM; in assay [2] (setting [3]) it was less than 100 nM; in assay [2] (setting [4]) it was 0.08 nM.
